Here are results for eight molecules from patent US20090081285A1, “USE OF RADICAL-CAPTURING SUBSTANCES IN A TOPICAL PREPARATION FOR ANTIPYRETIC TREATMENT” (priority 2005, published 2009).

Where two headings read alike, the source gives them in different places.

For assay [1] the following is noted: standard antioxidants, RPF stated as well-known; cited from earlier work.
A short description of assay [2]: Radical protection factor (RPF) by electron spin resonance (ESR). The format is physicochemical. The note with it: in vitro. The source says:
wherein RF=(S1−S2)/S1; RC=concentration of test substance (radicals/ml); PI=concentration of active substance preparation (mg/ml); S2=signal amplitude of a solution of antioxidant. The radical protection factor is preferably 800×10^14 radicals per mg of preparation, more preferably 30,000×10^14 radicals per mg of preparation.
The radical protection factor (RPF) indicates the activity in binding free radicals by an antioxidant or radical scavenger compared to a test substance.
As set forth above, the radical protection factor (RPF) determines the activity of a substance for binding free radicals as compared with a test substance. The test substance consists of a highly reactive, semi-stable radical which reacts with all known antioxidants. Such radicals include nitroxides such as Proxo (2,2,5,5-tetramethyl-1-dihydropyrrolinoxy nitroxide), Tempol (2,2,6,6-tetramethyl-1-piperidinoxy-4-ol nitroxide), DTBN (di-tert-butyl-nitroxide) or preferably DPPH (1,1-diphenyl-2-picryl-hydrazyl).
The RPF is measured in such a way that the signal amplitude of the test radical is measured by electron spin resonance (ESR/EPR) before and after mixing with an antioxidant/radical scavenger and calculating the RPF therefrom. For a series of standard antioxidants the RPF is well-known.
Ind. […] Starting from the known concentration of test substance (here: DPPH) or the number of its free radicals (radicals per ml), a signal amplitude S1 is measured using an ESR spectrometer. Both test radical and antioxidant are dissolved in a water/alcohol solution (e.g. 0.1 M). Thereafter, the signal amplitude S2 of the antioxidant is measured. The normalized difference between the two signal amplitudes is the reduction factor RF.
The result of the radical reduction of the test substance RC×RF is normalized relative to the quantity of product input PI (mg/ml). RC is the amount of the test substance, i.e., the known number of radicals in the test substance. The radical protection factor is calculated by means of the following equation:
RPF=N×10^14[radicals per mg],
wherein N is a positive real number and RPF for simplification may be reduced to the numerical value of N. This reduction will be used in the examples of the present invention.
The radical protection factor can be determined using an ESR spectrometer (GALENUS GmbH, Berlin, Germany) and is a magnitude for characterizing products with respect to their capability of binding free radicals. The method is an in vitro method in which no individual properties of the user would influence the antioxidants.

The mark [3] stands for this setting: radical scavenger raw materials.

For `CC(=O)OC/C=C(C)/C=C/C=C(C)/C=C/C1=C(C)CCCC1(C)C` [all-trans-retinol acetate], the “radical protection factor (RPF)” value in assay [1] is given as 196 ×10^14 radicals/mg. For the molecule cyclodextrins, the “radical protection factor (RPF)” value in assay [2] (printed without unit (b55-56: RPF=N×10^14 radicals per mg, reduced to N)) is on record as 0.

On to `CC1=C(/C=C/C(C)=C/C=C/C(C)=C/CO)C(C)(C)CCC1` [all-trans-retinol], for which, in assay [1], the “radical protection factor (RPF)” value is given as 827 ×10^14 radicals/mg. Turning to `Cc1c(C)c2c(c(C)c1O)CCC(C)(CCCC(C)CCCC(C)CCCC(C)C)O2` (racemic) [DL-α-tocopherol], the “radical protection factor (RPF)” value in assay [1] is on record as 41,200 ×10^14 radicals/mg. `O=C(OC[C@H]1O[C@@H](OC(=O)c2cc(O)c(O)c(OC(=O)c3cc(O)c(O)c(O)c3)c2)[C@H](OC(=O)c2cc(O)c(O)c(OC(=O)c3cc(O)c(O)c(O)c3)c2)[C@@H](OC(=O)c2cc(O)c(O)c(OC(=O)c3cc(O)c(O)c(O)c3)c2)[C@@H]1OC(=O)c1cc(O)c(O)c(OC(=O)c2cc(O)c(O)c(O)c2)c1)c1cc(O)c(O)c(OC(=O)c2cc(O)c(O)c(O)c2)c1` [tannic acid]: the “radical protection factor (RPF)” value in assay [2] (setting [3]) is 310,000 ×10^14 radicals/mg.

Consider `CC(=O)Oc1c(C)c(C)c2c(c1C)CCC(C)(CCC[C@H](C)CCC[C@H](C)CCCC(C)C)O2` (stereo partly drawn) [α-tocopheryl acetate], for which the “radical protection factor (RPF)” value in assay [1] is “about 48 ×10^14 radicals/mg”.

Turning to `O=C1O[C@H]([C@@H](O)CO)C([O-])=C1OP(=O)([O-])[O-].[Na+].[Na+].[Na+]` [sodium ascorbyl phosphate], in assay [2] (setting [3]), the “radical protection factor (RPF)” value was 35,000 ×10^14 radicals/mg. Same read-out and setting: as for `O=C(/C=C/c1ccc(O)c(O)c1)O[C@H](Cc1ccc(O)c(O)c1)C(=O)O` [rosmarinic acid], the figure is 36,000-68,000 ×10^14 radicals/mg.
